# Source: PMC6433957, “Phenylpyrrole fungicides act on triosephosphate isomerase to induce methylglyoxal stress and alter hybrid histidine kinase activity” (Scientific Reports, 2019)
# Target: T1, triosephosphate isomerase (TPI) (Saccharomyces cerevisiae, UniProt P00942)
# T1 construct: gene TPI1; commercial Triosephosphate isomerase (from S. cerevisiae, Sigma)
# T1 sequence (P00942 2-248): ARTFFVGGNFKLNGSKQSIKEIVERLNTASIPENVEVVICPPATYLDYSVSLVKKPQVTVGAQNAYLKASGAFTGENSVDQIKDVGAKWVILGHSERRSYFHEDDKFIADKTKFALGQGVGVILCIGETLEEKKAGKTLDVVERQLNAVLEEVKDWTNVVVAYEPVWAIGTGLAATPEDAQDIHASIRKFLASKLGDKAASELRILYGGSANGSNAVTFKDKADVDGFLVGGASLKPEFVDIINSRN
# Assay: coupled alpha-glycerophosphate dehydrogenase/NADH assay (A340) with purified TPI; also in vitro methylglyoxal release by TPI (diaminobenzene adduct)
# Format: biochemical
smiles,measurement,value
N#Cc1c[nH]cc1-c1cccc2c1OC(F)(F)O2 [fludioxonil],IC50,~403 µM
